Experimental data reported in patent publication US20260217768A1, “NANOPARTICLE-NHE3 PEPTIDE TO TREAT DIARRHEA” (The Johns Hopkins University, priority 2023, published 2026).

What was measured:
[1] = target: NHERF2 binding to NHE3 C-terminal peptides (Homo sapiens, UniProt Q15599); test: NHE3 peptide-NHERF2 overlay assay; conditions: peptide at 5 times the concentration of NHERF2 and MBP-NHE3 fusion peptides, n=5
Protocol: Two NHE3 C-terminal peptides containing the N3SP-1 sequence were separated on SDS-Page gradient gels and purified NHERF binding determined. Equal concentrations of NHE3 peptides and NHERF2 were used. Prior to NHERF2 addition, the blots were overlayed with 5× the concentration of N3SP-1Δ7 vs CP2.
Binding of purified full-length GST-NHERF2 to two NHE3 C-terminal peptides that contain the N3SP-1 sequence was determined in the presence of equal concentrations of CP-2 compared to N3SP-1Δ7. CP-2 and N3SP-1Δ7 peptides were used at 5 times the concentration of the NHERF2 fusion protein and the MBP-NHE3 fusion peptides.

mouse jejunum = conditions: in vivo
NHE3 [2] = test: NHE3 activity in differentiated human enteroid monolayers after nanoparticle delivery of peptide; assay type: cell-based
Protocol: (§1) NHE3 activity in PS120, Caco-2/BBe cells and human jejunal enteroids was determined fluorometrically (Photon Technologies Incorporated) using the intracellular pH sensitive dye BCECF, as reported (Levine et al., 1993; Sarker et al., 2008; Foulke-Abel et al., 2020). PS120/HA3-NHE3 cells were seeded on glass cover slips and studied at 70-80% confluency. Caco-2/BBe/HA3-NHE3 cells were grown to confluency on Transwell inserts (polyester, 0.4-μm pore size) and studied approximately 14-16 days pod. Human duodenal enteroid monolayers on Transwell inserts were differentiated for 5 days in the absence of Wnt3a, R-spondin, and noggin as described (Noel et al., 2017; Staab et al., 2020).
(§2) Rates of Na^+/H^+ exchange were determined as Na^+-dependent alkalinization in the presence of 50-μM HOE-694 (to inhibit all other plasma membrane NHE isoforms) in HCO3-free solutions, with internal calibration using the nigericin/K+ method, as previously described (Sarker et al., 2008; Foulke-Abel et al., 2020). Kinetic analysis was used for PS120 cell studies (expressed as Vmax) and initial rates (ΔpH/min) for Caco-2/BBe cells, mouse intestine in vitro, and human enteroids. For in vitro mouse jejunal transport studies, NHE3 activity (in the presence of 50-μM HOE-694) was measured using SNARF-4F at 37° C. in a perfusion chamber using a two-photon microscope (Olympus FV1000) and 25× objective, as described (Murtazina et al., 2011).
PBAE polymer and peptide were separately dissolved in pH 7.4 150-mM PBS and combined at a 1:1 volume ratio. Final concentrations of the components were 6-ng/μL peptide and 180-ng/μL polymer (30:1 polymer: peptide weight ratio). Polymer and peptide nanoparticles were allowed to self-assemble at room temperature for 10 minutes. For characterization, nanoparticles were diluted 1:5 in PBS. Hydrodynamic diameter and zeta potential were measured using a Malvern Zetasizer Pro (Malvern Panalytical, Malvern, UK). Stability was assessed by incubating nanoparticles at RT up to 45 minutes then measuring hydrodynamic diameter over 45 minutes. […]

[3] = test system: differentiated human enteroid monolayers; test: Nanoparticle-peptide uptake in human enteroid monolayers (confocal microscopy); assay type: cell-based; conditions: apical addition, 2 μM, 4 h uptake, differentiated human enteroids
Protocol: […] After varying times from 15 min to 4 hours, enteroids were washed three times with PBS to remove extracellular nanoparticles and wells were replenished with fresh serum-containing media.
At varying times after nanoparticle addition up to overnight, enteroids were serum-starved for 2 hours then fixed in 4% paraformaldehyde for 30 minutes. After washing with PBS, formaldehyde was neutralized with 20-mM glycine. Enteroids were then permeabilized in 0.1% saponin, 1% BSA for 30 minutes. Fixed and permeabilized enteroids were stained for biotinylated peptide using streptavidin conjugated AlexaFluor 488 (1:100) and Hoechst stain (1:200). Enteroids were thoroughly washed with PBS and mounted onto microscope slides. Uptake was visualized using an Olympus FV3000RS confocal microscope and 40× objective (Olympus, Tokyo, Japan).

NHE3 [4] = test: Effect of N-terminal truncations of N3SP-1 on NHE3 activity in human enteroids (BCECF-fluorometry); assay type: cell-based; conditions: human duodenal enteroids, Hill equation
Protocol: as §1, §2
Concentration dependent effects on NHE3 basal activity was determined using BCECF-fluorometry. Kinetic analysis was determined of extent of stimulation of basal NHE3 activity; analysis was by use of the Hill equation.
Given the ability of N3SP-1Δ7 to prevent CTx-induced fluid secretion in vivo (FIG. 3E) and to stimulate basal NHE3 activity and prevent cAMP inhibition in human enteroids (FIG. 4C), further studies were carried out with human enteroids to determine the shortest N3SP-1-related peptide that would stimulate human NHE3. A series of N3SP-1 N-terminal truncations was synthesized and concentration-dependent stimulation of NHE3 activity determined using human jejunal enteroids.

Chain of NHERF2 binding to NHE3 C-terminal peptides (Q15599 whole entry, the tested form may be a part): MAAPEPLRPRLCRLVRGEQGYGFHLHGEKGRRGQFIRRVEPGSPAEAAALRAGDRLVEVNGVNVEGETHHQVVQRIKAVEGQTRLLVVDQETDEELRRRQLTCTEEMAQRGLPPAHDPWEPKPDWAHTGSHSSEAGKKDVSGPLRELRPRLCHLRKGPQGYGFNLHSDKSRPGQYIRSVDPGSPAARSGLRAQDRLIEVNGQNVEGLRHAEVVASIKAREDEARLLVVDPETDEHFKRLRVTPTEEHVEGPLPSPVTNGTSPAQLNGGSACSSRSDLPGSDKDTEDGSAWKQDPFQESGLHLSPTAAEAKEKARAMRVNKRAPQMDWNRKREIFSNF

N3SP-1 lacking first seven N-terminal amino acids: RPSTVEASVSYLLRESASAVCLDMQSLEQRR [Peptide N3SP-1Δ7]
NHERF2 binding to NHE3 C-terminal peptides compared to control peptide CP-2 [1]: preferentially reduces NHERF2 binding | NHERF2 binding to NHE3 C-terminal peptides compared to control peptide CP-2 ([1]; listed as N3SP-147): significantly reduced NHERF2 binding | effect on CTx-stimulated net fluid secretion (loop weight/cm) (mouse jejunum): did not alter the efficacy | NHE3 activity after FSK, % of same peptide without FSK (NHE3 [2]; nanoparticles (250 nM) 18 h, FSK exposure, n=4): 88.0% | increase of basal NHE3 activity compared to CP-2 (NHE3 [2]; nanoparticles added apically (250 nM) for 18 h, n=4, p=0.043): 36.0% | uptake and location in enteroid monolayers [3]: lack of uptake | Stimulation of NHE3 Activity (NHE3 [4]; basal NHE3 activity, BCECF-fluorometry): YES (39%) | EC50 (NHE3 [4]; stimulation of basal NHE3 activity): 156 nM
